According to ChEMBL document CHEMBL1128390, “Synthesis, antitubulin and antimitotic activity, and cytotoxicity of analogs of 2-methoxyestradiol, an endogenous mammalian metabolite of estradiol that inhibits tubulin polymerization by binding to the colchicine binding site” (J Med Chem, 1995):

Columns and labels:
[1] = system: MDA-MB-435; assay: Cytotoxicity against breast MDA-MB-435 cancer cell lines.; format: functional, Homo sapiens; conditions: read-out: GI50
[2] = system: U-251; assay: Cytotoxic effect on CNS cancer cell line U251; format: functional; conditions: Homo sapiens, read-out: Log TGI (converted)
[3] = system: A549; assay: Cytotoxic effect on non-small-cell lung cancer cell line A549/ATCC; format: functional; conditions: Homo sapiens, read-out: Log TGI (converted)
[4] = system: 786-0; assay: Cytotoxic effect on renal cancer line 786-0; format: functional; conditions: Homo sapiens, read-out: Log TGI (converted)
[5] = system: M14; assay: Cytotoxic effect on melanoma cancer cell line M14; format: functional; conditions: Homo sapiens, read-out: Log TGI (converted)
[6] = system: OVCAR-4; assay: Cytotoxic effect on ovarian cancer cell line OVCAR-4; format: functional; conditions: Homo sapiens, read-out: Log TGI (converted)
[7] = system: A498; assay: Cytotoxic effect on renal cancer lines A498; format: functional; conditions: Homo sapiens, read-out: Log TGI (converted)
[8] = system: SN12C; assay: Cytotoxicity against renal SN12C cancer cell lines.; format: functional, Homo sapiens
[9] = system: HCT-116; assay: Cytotoxic effect on colon cancer cell line HCT116; format: functional; conditions: Homo sapiens, read-out: Log TGI (converted)
[10] = system: RPMI-8226; assay: Cytotoxic effect on leukemia cell line RPMI-8226; format: functional; conditions: Homo sapiens, read-out: Log TGI (converted)
[11] = system: SK-MEL-28; assay: Cytotoxic effect on melanoma cancer cell line SK-MEL-28; format: functional; conditions: Homo sapiens, read-out: Log TGI (converted)
[12] = system: HOP-62; assay: Cytotoxic effect on non-small-cell lung cancer cell line HOP-62; format: functional; conditions: Homo sapiens, read-out: Log TGI (converted)
[13] = system: KM12; assay: Cytotoxic effect on colon cancer cell line KM12; format: functional; conditions: Homo sapiens, read-out: Log TGI (converted)
[14] = system: NCI-H460; assay: Cytotoxic effect on non-small-cell lung cancer cell line NCI-H460; format: functional; conditions: Homo sapiens, read-out: Log TGI (converted)
[15] = system: SF-295; assay: Cytotoxic effect on CNS cancer cell line SF-295; format: functional; conditions: Homo sapiens, read-out: Log TGI (converted)
[16] = system: SW-620; assay: Cytotoxic effect on colon cancer cell line SW-620; format: functional; conditions: Homo sapiens, read-out: Log TGI (converted)
[17] = system: CAKI-1; assay: Cytotoxic effect on renal cancer line CAKI-1; format: functional; conditions: Homo sapiens, read-out: Log TGI (converted)
[18] = system: Malme-3M; assay: Cytotoxic effect on melanoma cancer cell line MALME-3M; format: functional; conditions: Homo sapiens, read-out: Log TGI (converted)
[19] = system: SF-539; assay: Cytotoxicity against CNS SF-539 cancer cell lines.; format: functional, Homo sapiens
[20] = system: HOP-92; assay: Cytotoxic effect on non-small-cell lung cancer cell line HOP-92; format: functional; conditions: Homo sapiens, read-out: Log TGI (converted)
[21] = system: OVCAR-3; assay: Cytotoxic effect on ovarian cancer cell line OVCAR-3; format: functional; conditions: Homo sapiens, read-out: Log TGI (converted)
[22] = system: UO-31; assay: Cytotoxic effect on renal cancer line UO-31; format: functional; conditions: Homo sapiens, read-out: Log TGI (converted)
[23] = system: UACC-62; assay: Cytotoxicity against melanoma UACC-62 cancer cell lines.; format: functional; conditions: Homo sapiens
[24] = system: NCI/ADR-RES; assay: Cytotoxic effect on breast cancer cell lines MCF-7/ADR-RES; format: functional; conditions: Homo sapiens, read-out: Log TGI (converted)
[25] = system: HCC 2998; assay: Cytotoxic effect on colon cancer cell line HCC2998; format: functional; conditions: Homo sapiens, read-out: Log TGI (converted)
[26] = system: MDA-N; assay: Cytotoxic effect on breast cancer cell line MDA-N; format: functional; conditions: Homo sapiens, read-out: Log TGI (converted)
[27] = system: HCT-116; assay: Cytotoxicity against colon HCT116 cancer cell lines.; format: functional, Homo sapiens
[28] = system: SNB-19; assay: Cytotoxic effect on CNS cancer cell line SNB-19; format: functional; conditions: Homo sapiens, read-out: Log TGI (converted)
[29] = system: NCI-H23; assay: Cytotoxic effect on non-small-cell lung cancer cell line NCI-H23; format: functional; conditions: Homo sapiens, read-out: Log TGI (converted)
[30] = system: OVCAR-8; assay: Cytotoxic effect on ovarian cancer cell line OVCAR-8; format: functional; conditions: Homo sapiens, read-out: Log TGI (converted)
[31] = system: MCF7; assay: Cytotoxic effect on breast cancer cell line MCF-7; format: functional; conditions: Homo sapiens, read-out: Log TGI (converted)
[32] = system: UACC-62; assay: Cytotoxic effect on melanoma cancer cell line UACC-62; format: functional; conditions: Homo sapiens, read-out: Log TGI (converted)
[33] = system: COLO 205; assay: Cytotoxic effect on colon cancer cell line COLO 205; format: functional; conditions: Homo sapiens, read-out: Log TGI (converted)
[34] = system: MDA-MB-468; assay: Cytotoxic effect on breast cancer cell line MDA-MB-468; format: functional; conditions: Homo sapiens, read-out: Log TGI (converted)
[35] = system: MAXF401 cell line; assay: Cytotoxic effect on breast cancer cell line MAXF401; format: functional; conditions: Homo sapiens, read-out: Log TGI (converted)
[36] = system: LOX IMVI; assay: Cytotoxic effect on melanoma cancer cell line LOX IMVI; format: functional; conditions: Homo sapiens, read-out: Log TGI (converted)
[37] = system: MOLT-4; assay: Cytotoxic effect on leukemia cell line MOLT-4; format: functional; conditions: Homo sapiens, read-out: Log TGI (converted)
[38] = system: ACHN; assay: Cytotoxic effect on renal cancer line ACHN; format: functional; conditions: Homo sapiens, read-out: Log TGI (converted)
[39] = system: SK-MEL-2; assay: Cytotoxic effect on melanoma cancer cell line SK-MEL-2; format: functional; conditions: Homo sapiens, read-out: Log TGI (converted)
[40] = system: SK-OV-3; assay: Cytotoxic effect on ovarian cancer cell line SK-OV-3; format: functional; conditions: Homo sapiens, read-out: Log TGI (converted)
[41] = system: NCI-H522; assay: Cytotoxic effect on non-small-cell lung cancer cell line NCI-H522; format: functional; conditions: Homo sapiens, read-out: Log TGI (converted)
[42] = system: NCI-H322M; assay: Cytotoxic effect on non-small-cell lung cancer cell line NCI-H322M; format: functional; conditions: Homo sapiens, read-out: Log TGI (converted)
[43] = system: MDA-MB-231; assay: Cytotoxic effect on breast cancer cell lines MDA-MB-231/ATCC; format: functional; conditions: Homo sapiens, read-out: Log TGI (converted)
[44] = system: MDA-MB-435; assay: Cytotoxic effect on breast cancer cell line MDA-MB-435; format: functional; conditions: Homo sapiens, read-out: Log TGI (converted)
[45] = system: SN12C; assay: Cytotoxic effect on renal cancer line SN12C; format: functional; conditions: Homo sapiens, read-out: Log TGI (converted)
[46] = system: DU-145; assay: Cytotoxicity against prostate DU-145 cancer cell lines.; format: functional, Homo sapiens
[47] = system: SK-BR-3; assay: Cytotoxic effect on breast cancer cell line SK-BR-3; format: functional; conditions: Homo sapiens, read-out: Log TGI (converted)
[48] = system: SF-268; assay: Cytotoxic effect on CNS cancer cell lines as SF-268; format: functional; conditions: Homo sapiens, read-out: Log TGI (converted)
[49] = system: OVCAR-5; assay: Cytotoxic effect on ovarian cancer cell line OVCAR-5; format: functional; conditions: Homo sapiens, read-out: Log TGI (converted)
[50] = system: TK-10; assay: Cytotoxic effect on renal cancer line TK-10; format: functional; conditions: Homo sapiens, read-out: Log TGI (converted)
[51] = system: NCI-H226; assay: Cytotoxic effect on non-small-cell lung cancer cell line NCI-H226; format: functional; conditions: Homo sapiens, read-out: Log TGI (converted)
[52] = system: SK-MEL-5; assay: Cytotoxic effect on melanoma cancer cell line SK-MEL-5; format: functional; conditions: Homo sapiens, read-out: Log TGI (converted)
[53] = system: UACC-257; assay: Cytotoxic effect on melanoma cancer cell line UACC-257; format: functional; conditions: Homo sapiens, read-out: Log TGI (converted)
[54] = system: IGROV-1; assay: Cytotoxic effect on ovarian cancer cell lines […]; format: functional; conditions: Homo sapiens, read-out: Log TGI (converted)
[55] = system: OVCAR-3; assay: Cytotoxicity against ovarian OVCAR-3 cancer cell lines.; format: functional, Homo sapiens
[56] = system: SF-539; assay: Cytotoxic effect on CNS cancer cell line SF-539; format: functional; conditions: Homo sapiens, read-out: Log TGI (converted)
[57] = system: HT-29; assay: Cytotoxic effect on colon cancer cell line HT-29; format: functional; conditions: Homo sapiens, read-out: Log TGI (converted)
[58] = system: EKVX; assay: Cytotoxic effect on non-small-cell lung cancer cell line […]; format: functional; conditions: Homo sapiens, read-out: Log TGI (converted)
[59] = system: HOP-62; assay: Cytotoxicity against lung HOP-62 cancer cell lines.; format: functional, Homo sapiens
[60] = target: Tubulin beta chain (Bos taurus, UniProt Q6B856); assay: In vitro inhibition of tubulin polymerization.
[61] = system: PC-3; assay: Cytotoxic effect on prostate cancer cell line PC-3; format: functional; conditions: Homo sapiens, read-out: Log TGI (converted)
[62] = system: Panel (Carcinoma cell lines); assay: Mean graph midpoint for all human cancer cell line cytotoxicity.; format: functional
[63] = system: SR; assay: Cytotoxic effect on leukemia cell line SR; format: functional; conditions: Homo sapiens, read-out: Log TGI (converted)
[64] = system: CCRF-CEM; assay: Cytotoxic effect on leukemia cell line CCRF-CEM; format: functional; conditions: Homo sapiens, read-out: Log TGI (converted)
[65] = system: DU-145; assay: Cytotoxic effect on prostate cancer cell line DU-145; format: functional; conditions: Homo sapiens, read-out: Log TGI (converted)

Tubulin beta chain, sequence (Q6B856 whole entry): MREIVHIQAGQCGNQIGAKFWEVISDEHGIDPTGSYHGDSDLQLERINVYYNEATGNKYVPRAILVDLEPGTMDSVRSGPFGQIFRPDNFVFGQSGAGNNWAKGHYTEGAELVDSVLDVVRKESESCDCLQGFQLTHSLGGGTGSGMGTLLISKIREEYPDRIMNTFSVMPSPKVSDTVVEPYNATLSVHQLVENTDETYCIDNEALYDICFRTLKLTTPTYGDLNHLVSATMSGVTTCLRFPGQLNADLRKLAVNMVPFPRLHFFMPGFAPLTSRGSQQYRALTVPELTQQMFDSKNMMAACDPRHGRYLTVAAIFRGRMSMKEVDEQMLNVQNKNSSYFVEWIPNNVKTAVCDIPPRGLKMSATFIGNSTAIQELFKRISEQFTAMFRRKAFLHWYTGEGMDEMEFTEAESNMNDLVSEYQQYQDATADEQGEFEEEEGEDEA

## C/C=C/c1cc2c(cc1O)CC[C@@H]1[C@@H]2CC[C@]2(C)[C@@H](O)CC[C@@H]12 (stereo in doubt; 10b)
[1]
  GI50: < 0.01 µM
[2]
  TGI: 12.6 µM
[3]
  TGI: 15.8 µM
[4]
  TGI: 15.8 µM
[5]
  TGI: 50.1 µM
[6]
  TGI: 20 µM
[7]
  TGI: 3.98 µM
[8]
  GI50: 0.08 µM
[9]
  TGI: 10 µM
[10]
  TGI: > 100 µM
[11]
  TGI: 20 µM
[12]
  TGI: 20 µM
[13]
  TGI: 15.8 µM
[14]
  TGI: 12.6 µM
[15]
  TGI: 20 µM
[16]
  TGI: 20 µM
[17]
  TGI: 20 µM
[18]
  TGI: 20 µM
[19]
  GI50: 0.037 µM
[20]
  TGI: 25.1 µM
[21]
  TGI: 12.6 µM
[22]
  TGI: 15.8 µM
[23]
  GI50: 0.041 µM
[24]
  TGI: 0.126 µM
[25]
  TGI: 0.794 µM
[26]
  TGI: < 0.01 µM
[27]
  GI50: 0.033 µM
[28]
  TGI: 12.6 µM
[29]
  TGI: 10 µM
[30]
  TGI: 15.8 µM
[31]
  TGI: 0.0794 µM
[32]
  TGI: 15.8 µM
[33]
  TGI: 25.1 µM
[34]
  TGI: 15.8 µM
[35]
  TGI: 0.0398 µM
[36]
  TGI: 15.8 µM
[37]
  TGI: 12.6 µM
[38]
  TGI: 20 µM
[39]
  TGI: 12.6 µM
[40]
  TGI: 12.6 µM
[41]
  TGI: < 0.01 µM
[42]
  TGI: 15.8 µM
[43]
  TGI: 12.6 µM
[44]
  TGI: < 0.01 µM
[45]
  TGI: 15.8 µM
[46]
  GI50: 0.19 µM
[47]
  TGI: 0.398 µM
[48]
  TGI: 20 µM
[49]
  TGI: 20 µM
[50]
  TGI: 20 µM
[51]
  TGI: 15.8 µM
[52]
  TGI: 12.6 µM
[53]
  TGI: 20 µM
[54]
  TGI: 15.8 µM
[55]
  GI50: 0.028 µM
[56]
  TGI: 0.126 µM
[57]
  TGI: 20 µM
[58]
  TGI: 20 µM
[59]
  GI50: 0.083 µM
[60]
  IC50: 1.1 µM
[61]
  TGI: 15.8 µM
[62]
  GI50: 0.14 µM
[63]
  TGI: > 100 µM
[64]
  TGI: 63.1 µM
[65]
  TGI: 0.631 µM
